Earlier results in patent publication US11052042B2, “Aqueous suspensions of ciclesonide for nebulisation” (Covis Pharma B.V., priority 2003, dated 2021).

SMILES: CC(C)C(=O)OCC(=O)[C@@]12O[C@H](C3CCCCC3)O[C@@H]1C[C@H]1[C@@H]3CCC4=CC(=O)C=C[C@]4(C)[C@H]3[C@@H](O)C[C@@]12C [Ciclesonide, [11β,16α(R)]-16,17-[(Cyclohexylmethylen)bis(oxy)]-11-hydroxy-21-(2-methyl-1-oxopropoxy)pregna-1,4-dien-3,20-dion]
- concentration of the drug in the lungs (in vivo): high
- metabolism by liver oxidases (in vivo): very high
- plasma half-life (in vivo): low
- absorption after oral administration (oral administration): only moderately absorbed
- anti-inflammatory activity compared with budesonide (relative to budesonide): higher
- systemic activity compared with budesonide (relative to budesonide): three times lower
